Assay results: US20220031710A1, “USE OF ERK5 INHIBITORS FOR TREATING GLIOMAS IN PEDIATRIC SUBJECTS” (UNIVERSITY OF PITTSBURGH - OF THE COMMONWEALTH SYSTEM OF …, priority 2019, published 2022)

What was measured:
[1] = system: CNMC-XD-760; assay: Alamar blue viability EC50 in H3 wildtype DIPG cell line; format: cell-based, human; settings: CNMC-XD-760 (DIPG histone wildtype H3) compared to H3 mutant DIPG cells and hemispheric pGBM cells; 96 h
Description: (§1) Direct cell counts were performed using the Countess II FL Automated Cell Counter (ThermoFisher Scientific). Alamar blue viability (ThermoFisher Scientific) and the 5-bromo-2′-deoxyuridine (BrdU) incorporated cell proliferation assay (Cell Signaling Technology Cat #6813) were performed using the manufacturer's standard protocol. EC50 curve analysis was performed using raw fluorescent Alamar blue values that were inputted into PRISM 7.0. Drug concentrations were log 10 transformed and values normalized to percent viability with respect to vehicle treated cells. EC50 values were interpolated from a log inhibitor vs. normalized response with variable slope using a least square fit model.

[2] = system: NSCs; assay: Alamar blue viability EC50 in neural stem cells; format: cell-based, human
Description: Human Neural Stem Cells (H9 hESC-Derived) were purchased from Invitrogen and grown in DMEM/F12 containing penicillin/streptomycin/amphotericin B (1% vol/vol) supplemented with N2 (2% vol/vol; Invitrogen), EGF (20 ng/ml; Invitrogen), and FGF-2 (20 ng/ml; Invitrogen). DIPG cell lines (all with the H3K27M mutation) SU-DIPG-IV (DIPG-IV), SU-DIPG-13p (DIPG-13p), and HSJD-DIPG-007 (DIPG-007) were grown and passaged in DIPG medium as previously reported (Grasso et al., Nature medicine 2015; 21:555-9; Nagaraja et al., Cancer cell 2017; 31:635-52 e6; Vinci et al., Nature medicine 2018). SF8628 and immortalized NHAs were grown in DMEM (Invitrogen) supplemented with 10% FBS (Invitrogen). All cell lines were confirmed by STR profiling and tested mycoplasma negative by PCR. All tumor-derived cell lines used are described in Table 2.
as §1, with “EC50 values were interpolated from a log inhibitor vs. normalized response with variable slope using a least square fit model.” left out

[3] = system: DIPG-007, DIPG-IV, SF8628 and DIPG-13p cells; assay: Direct Trypan-Blue automated cell count of DIPG cells; format: cell-based, human
Description: as §1

[4] = system: DIPG-IV cells; assay: EC50 of ERK5-IN-1 in DIPG-IV cells expressing ERK5-HA, ERK5-HA T733E or MYC S62D; format: cell-based, human
Description: Wildtype human H3F3A cDNA was ligated with a puromycin selection marker and a self-cleaving T2A sequence using Gibson Assembly Cloning and cloned into pLV with an EF1a promoter. HA-RASAL1 (NM_001193520.1) with an N-terminal HA tag, MYC (NM_002467.4), or MAPK7 (ERK5, NM_139033) were ligated with T2A mCherry and cloned into pLV under the control of the EF1a promoter. Cloning and plasmid sequence validation were performed by VectorBuilder Services (Santa Clara, Calif. 95050). Site-directed mutagenesis was performed to generate H3F3A K27M, H3F3A G34R, MYC S62D, and ERK5 mutant constructs using the QuikChange II Site-Directed Mutagenesis Kit and manufacturer's protocol (Agilent, Cat #200523, Santa Clara, Calif. 95051). Lentiviral ERK5 GIPZ shRNA plasmids were purchased from Dharmacon (Lafayette, Colo. 80026, Cat #RHS4531-EG5598 glycerol set: V2LHS 202701, V3LHS_366737, V3LHS_366738, V3LHS_366740, V3LHS_640828, V3LHS_640830).
Direct cell counts were performed using the Countess II FL Automated Cell Counter (ThermoFisher Scientific). Alamar blue viability (ThermoFisher Scientific) and the 5-bromo-2′-deoxyuridine (BrdU) incorporated cell proliferation assay (Cell Signaling Technology Cat #6813) were performed using the manufacturer's standard protocol. EC50 curve analysis was performed using raw fluorescent Alamar blue values that were inputted into PRISM 7.0. […]

[5] = system: MYCN; assay: MYCN qRT-PCR and western blot in DIPG-13p cells; format: cell-based, human
Description: Cell pellets were lysed in PLC lysis buffer containing protease and phosphatase inhibitors (Roche Inc.). Protein lysates were quantified using the bicinchoninic acid (BCA) assay (Pierce Chemical Co., Rockford, Ill.). 30 μg of total protein lysate was loaded in 10% SDS-PAGE gels and electrophoresed. Proteins were transferred to PVDF membranes using a semi-dry transfer apparatus (Bio-Rad). Membranes were blocked for one hour and probed for various proteins overnight in 5% non-fat milk or 5% BSA in Tris Buffered Saline Solution, 0.5% Tween-20 (TBST) or Phosphate Buffered Saline Solution with 0.5% Tween-20 (PBST). […] Binding was detected using Chemiluminescence Reagent Plus (PerkinElmer Inc., MA, USA). […]
Total RNA isolation was performed using an RNA extraction kit according to the manufacturer's instructions (RNeasy kit, Qiagen). cDNA was synthesized from 100 ng of total RNA using the Quantitect RT kit which included DNAse treatment (Qiagen). Quantitative real-time PCR was performed on 10 ng of cDNA template in a final volume of 20 μl using the Chromo4 Real Time PCR detector (MJ Research, a Division of Bio-Rad Laboratories Ltd) using SYBR green fluorescence. RT-PCR data was analyzed using Opticon Monitor 3.1.3 analysis software. […]

[6] = biological target: ERK5 (Homo sapiens, UniProt Q13164); assay: Western blot of ERK5 phosphorylation sites in DIPG cells; format: cell-based; design: endogenous in cells; host or cells: DIPG-007 and DIPG-IV cells; settings: DIPG-007 and DIPG-IV cells
Chain of ERK5 (Q13164 whole entry): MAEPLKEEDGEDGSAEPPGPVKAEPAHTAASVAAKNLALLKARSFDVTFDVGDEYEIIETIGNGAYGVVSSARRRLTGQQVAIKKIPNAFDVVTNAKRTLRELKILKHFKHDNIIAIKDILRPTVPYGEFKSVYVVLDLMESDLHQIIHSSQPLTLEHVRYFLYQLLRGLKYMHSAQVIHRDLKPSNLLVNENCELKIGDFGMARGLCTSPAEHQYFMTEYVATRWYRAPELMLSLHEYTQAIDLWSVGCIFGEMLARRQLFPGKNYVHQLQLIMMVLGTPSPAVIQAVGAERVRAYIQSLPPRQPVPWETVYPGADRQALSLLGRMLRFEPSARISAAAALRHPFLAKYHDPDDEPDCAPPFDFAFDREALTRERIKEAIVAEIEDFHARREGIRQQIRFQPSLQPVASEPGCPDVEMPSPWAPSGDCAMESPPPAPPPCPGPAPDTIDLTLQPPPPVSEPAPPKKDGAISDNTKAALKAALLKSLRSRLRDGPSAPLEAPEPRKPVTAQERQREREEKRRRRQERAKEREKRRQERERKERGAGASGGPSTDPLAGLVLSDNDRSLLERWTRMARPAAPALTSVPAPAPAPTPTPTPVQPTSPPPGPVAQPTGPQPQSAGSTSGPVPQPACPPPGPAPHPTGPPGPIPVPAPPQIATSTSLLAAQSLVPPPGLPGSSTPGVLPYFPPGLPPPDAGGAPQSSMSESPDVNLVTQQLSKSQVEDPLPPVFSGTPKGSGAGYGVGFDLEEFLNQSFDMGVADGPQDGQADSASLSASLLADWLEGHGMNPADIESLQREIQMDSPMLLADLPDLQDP
Description: Cell pellets were lysed in PLC lysis buffer containing protease and phosphatase inhibitors (Roche Inc.). Protein lysates were quantified using the bicinchoninic acid (BCA) assay (Pierce Chemical Co., Rockford, Ill.). 30 μg of total protein lysate was loaded in 10% SDS-PAGE gels and electrophoresed. Proteins were transferred to PVDF membranes using a semi-dry transfer apparatus (Bio-Rad). Membranes were blocked for one hour and probed for various proteins overnight in 5% non-fat milk or 5% BSA in Tris Buffered Saline Solution, 0.5% Tween-20 (TBST) or Phosphate Buffered Saline Solution with 0.5% Tween-20 (PBST). Membranes were washed for 5 mins in TBST (3×) and incubated with horseradish peroxidase-conjugated antibodies specific for the primary antibody (BioRad Laboratories, Inc., CA, USA). Binding was detected using Chemiluminescence Reagent Plus (PerkinElmer Inc., MA, USA).

Q: What does the source list for `CCOc1cc(C(=O)N2CCC(N3CCN(C)CC3)CC2)ccc1Nc1ncc2c(n1)N(C1CCCC1)c1ccccc1C(=O)N2C` [ERK5-IN-1, 11-cyclopentyl-2-[[2-ethoxy-4-[[4-(4-methyl-1-piperazinyl)-1-piperidinyl]carbonyl]phenyl]amino]-5,11-dihydro-5-methyl-6H-pyrimido[4,5b][1,4]benzodiazepin-6-one]?
A: EC50 values for ERK5-IN-1 [1]: highest EC50 values; ERK5-IN-1 EC50 values ([2]; NSCs and NSCs over expressing wildtype H3, compared to H3K27M DIPG and hemispheric pGBM lines): higher; ERK5-IN-1 EC50 values ([2]; NSCs expressing H3K27M): significantly lower; cell number ([3]; 500 nM, 9 days of treatment, DIPG-007, DIPG-IV, SF8628 cells, vs vehicle): significant decreases in cell number; cell growth ([3]; DIPG-13p and SF8628 cells): diminished cell growth; resistance to ERK5-IN-1 (EC50 values) ([4]; DIPG-IV cells expressing MYC S62D vs empty vector control): promoted resistance; EC50 values ([4]; DIPG-IV cells expressing wild-type HA-tagged ERK5 or constitutively active ERK5 T733E vs empty vector): increased EC50 values; MYCN protein and transcript levels [5]: down-regulation; ERK5 Thr218/Tyr220 phosphorylation (regulated by MEK5) [6]: did not inhibit; ERK5 auto-phosphorylation and ERK5 activity sites (Ser731 and Thr733) ([6]; at 100 nM): inhibit
